Test results reported in ChEMBL document CHEMBL1141279, “Benzylphenethylamine alkaloids from Hosta plantaginea with inhibitory activity against tobacco mosaic virus and acetylcholinesterase” (J Nat Prod, 2007).
pIC50: −log10 of the molar value. The source made the active and inactive calls. The calls are words filed in the database; no cut-off is given here.

Experiments:
Acetylcholinesterase = Acetylcholinesterase (Homo sapiens, UniProt P22303)
Description: Inhibition of AChE by Ellman method

Tobacco mosaic virus [1] = assay: Antiviral activity against Tobacco mosaic virus U1 after 72 hrs by half leaf method; format: functional, organism-based; conditions: for pIC50: U1, 72 h
Tobacco mosaic virus [2] = assay: Antiviral activity against Tobacco mosaic virus U1 at 1 ug/mL after 72 hrs by half leaf method; format: functional; conditions: U1, 72 h

Acetylcholinesterase, sequence (P22303 whole entry): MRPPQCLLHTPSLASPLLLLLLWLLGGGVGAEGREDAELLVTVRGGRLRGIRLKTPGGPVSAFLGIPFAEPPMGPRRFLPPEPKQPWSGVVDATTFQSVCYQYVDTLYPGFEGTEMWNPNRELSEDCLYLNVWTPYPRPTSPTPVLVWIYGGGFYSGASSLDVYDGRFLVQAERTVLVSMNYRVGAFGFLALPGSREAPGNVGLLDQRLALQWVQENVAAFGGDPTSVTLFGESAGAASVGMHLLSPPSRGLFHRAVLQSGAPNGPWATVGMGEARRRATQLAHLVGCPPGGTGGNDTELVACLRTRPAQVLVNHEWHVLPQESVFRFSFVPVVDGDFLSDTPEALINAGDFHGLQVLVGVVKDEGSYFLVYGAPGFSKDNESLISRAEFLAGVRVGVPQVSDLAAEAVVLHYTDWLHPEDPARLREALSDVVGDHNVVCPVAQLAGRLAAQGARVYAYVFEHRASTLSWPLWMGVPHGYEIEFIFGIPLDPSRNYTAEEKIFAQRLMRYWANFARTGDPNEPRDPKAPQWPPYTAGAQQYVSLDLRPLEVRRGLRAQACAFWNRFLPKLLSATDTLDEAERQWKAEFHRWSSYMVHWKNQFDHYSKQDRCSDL

| SMILES | pIC50 (Acetylcholinesterase) | Activity (Tobacco mosaic virus [1]) | also measured |
| --- | --- | --- | --- |
| COc1cc2c(c(OC)c1OC)C(=O)O[C@]21[C@H](O)[C@@H](O)C=C2CCN(C)[C@H]21 | 3.95 |  |  |
| O=C1N[C@H]2[C@H](O)[C@H](O)[C@@H](O)C[C@@H]2c2cc3c(cc21)OCO3 |  |  | pIC50 (Tobacco mosaic virus [1]): 5.74 |
| CC(=O)O[C@H]1[C@H]2c3cc4c(cc3CN3CCC(=C[C@@H]1O)[C@H]23)OCO4 | 6.02 |  |  |
| COc1cc2c(cc1OC)[C@]1(OC2=O)[C@H](O)[C@@H](O)C=C2CCN(C)[C@H]21 | 5.63 | inactive |  |
| CO[C@@H]1C=C[C@@]23c4cc5c(cc4[C@H](O)N(C[C@@H]2O)[C@H]3C1)OCO5 |  | inactive |  |
| COc1cc2c(c(OC)c1OC)C(=O)O[C@@H]1CC=C3CCN(C)[C@H]3[C@H]21 |  | inactive |  |
| O[C@@H]1C=C[C@@]23c4cc5c(cc4CN(C[C@@H]2O)[C@H]3C1)OCO5 |  | inactive |  |
| CO[C@@H]1C=C[C@@]23c4cc5c(cc4CN(C[C@@H]2O)[C@H]3C1)OCO5 [(+)-HAEMANTHAMINE] | 3.34 |  |  |
| COc1ccc2c3c(c4cc(OC)c(OC)cc4c2c1)C[C@H]1CCCN1C3 [(-)-ANTOFINE] |  |  | inhibition at 1 µg/mL (Tobacco mosaic virus [2]): 65% |
| COc1cc2c(cc1OC)-c1cccc3c1N(CC3)C2 [ASSOANINE] | 5.41 |  |  |
| O[C@H]1[C@H]2c3cc4c(cc3CN3CCC(=C[C@@H]1O)[C@H]23)OCO4 [LYCORINE] | 3.81 | inactive |  |
| Oc1ccc2c3c1O[C@H]1C[C@@H](O)C=C[C@@]31CCNC2 [NORSANGUININE] | 5.84 | inactive |  |
| NC(=O)c1ncn([C@@H]2O[C@H](CO)[C@@H](O)[C@H]2O)n1 [RIBAVIRIN] |  |  | pIC50 (Tobacco mosaic virus [1]): 2.52 |
| [O-]c1cc2c3c(c1)c1cc4c(cc1c[n+]3CC2)OCO4 [UNGEREMINE] | 5.41 |  |  |
